Results from BigSolDB 2.1.

O=c1[nH]c2ccccc2c(=O)o1
solubility (mole fraction)
Settings | 288.15 K | 293.15 K | 298.15 K | 303.15 K | 308.15 K | 313.15 K | 318.15 K | 323.15 K | 328.15 K
in 1,4-dioxane | 0.00839 | 0.00944 | 0.0107 | 0.0119 | 0.0133 | 0.0146 | – | 0.0179 | 0.0198
in 2-butanone | 0.00741 | 0.00805 | 0.00877 | 0.00964 | 0.0107 | 0.0117 | 0.0129 | 0.014 | 0.0153
in acetone | 0.00794 | 0.00873 | 0.00965 | 0.0109 | 0.0122 | 0.0135 | 0.0149 | 0.0165 | 0.0184
in acetonitrile | 0.003 | 0.0033 | 0.00374 | 0.0043 | 0.00485 | 0.00553 | 0.00624 | 0.00712 | 0.00797
in ethanol | 0.00134 | 0.0015 | 0.00175 | 0.00201 | 0.00239 | 0.00277 | 0.00328 | 0.00381 | 0.00439
in ethyl acetate | 0.0032 | 0.00352 | 0.00389 | 0.00434 | 0.00482 | 0.00533 | 0.00582 | 0.00636 | 0.00694
in isopropanol | 0.00104 | 0.00121 | 0.00144 | 0.00176 | 0.00216 | 0.00265 | 0.00316 | 0.0038 | 0.00457
in isopropyl acetate | 0.00185 | 0.00206 | 0.00234 | 0.00256 | 0.00291 | 0.00325 | 0.0036 | 0.00396 | 0.00434
in methanol | 0.00149 | 0.00173 | 0.00204 | 0.00243 | 0.00295 | 0.00354 | 0.00425 | 0.00507 | 0.00606
in methyl acetate | 0.00415 | 0.00464 | 0.00517 | 0.00573 | 0.00634 | 0.00699 | 0.00768 | 0.00844 | 0.00937
in n-propanol | 0.00116 | 0.00133 | 0.00152 | 0.00181 | 0.00208 | 0.0025 | 0.00291 | 0.00341 | 0.00394
in n-propyl acetate | 0.00229 | 0.00255 | 0.00285 | 0.00318 | 0.00351 | 0.00394 | 0.00434 | 0.00477 | 0.00534
